Data taken from ChEMBL document CHEMBL1135180, “Synthesis and anti-influenza virus activity of 4-guanidino-7-substituted Neu5Ac2en derivatives” (Bioorg Med Chem Lett, 2002).
Values after ≈ are worked out from the molar mass of the structure shown.

Legend:
Influenza A virus = experiment: Inhibition of plaque formation; type: functional, organism-based
[1] = biological target: Neuraminidase (Influenza A virus (A/Puerto Rico/8/1934(H1N1)), UniProt P03468); experiment: Inhibition of sialidase activity; type: functional, Influenza A virus (strain: A/PR/8/34)
Neuraminidase (Influenza A virus (A/Puerto Rico/8/1934(H1N1)), UniProt P03468), sequence (P03468 whole entry): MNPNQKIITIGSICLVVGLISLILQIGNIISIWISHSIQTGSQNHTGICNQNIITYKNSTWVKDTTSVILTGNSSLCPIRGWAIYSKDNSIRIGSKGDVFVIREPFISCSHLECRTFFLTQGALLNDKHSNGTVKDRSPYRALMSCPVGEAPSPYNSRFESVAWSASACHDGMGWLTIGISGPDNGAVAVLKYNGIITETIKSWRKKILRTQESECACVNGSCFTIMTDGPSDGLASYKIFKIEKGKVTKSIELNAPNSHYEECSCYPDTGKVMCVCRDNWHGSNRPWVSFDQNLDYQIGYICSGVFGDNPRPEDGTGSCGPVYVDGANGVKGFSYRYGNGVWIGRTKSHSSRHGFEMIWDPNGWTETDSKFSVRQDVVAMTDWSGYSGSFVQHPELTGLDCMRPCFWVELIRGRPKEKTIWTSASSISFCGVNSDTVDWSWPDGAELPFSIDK

| Compound | IC50 (Influenza A virus) [ng/mL] | IC50 [1] [nM] |
| --- | --- | --- |
| CCCCCCCCCCCCCCCC(=O)N[C@@H]([C@@H]1OC(C(=O)O)=C[C@H](N=C(N)N)[C@H]1NC(C)=O)[C@H](O)CO.O=C(O)C(F)(F)F | 80 | 68.7 |
| CC(=O)N[C@H]1[C@H]([C@H](F)[C@H](O)CO)OC(C(=O)O)=C[C@@H]1NC(=N)N.O=C(O)C(F)(F)F | 1.8 | 1.78 |
| CC(=O)N[C@H]1[C@H]([C@H](N)[C@H](O)CO)OC(C(=O)O)=C[C@@H]1NC(=N)N.O=C(O)C(F)(F)F | 20 | 84 |
| CC(=O)N[C@H]1[C@H]([C@H](N=[N+]=[N-])[C@H](O)CO)OC(C(=O)O)=C[C@@H]1NC(=N)N.O=C(O)C(F)(F)F | 0.3 | 3.39 |
| CC(=O)N[C@@H]1[C@@H](N=C(N)N)C=C(C(=O)O)O[C@H]1C[C@H](O)CO.O=C(O)C(F)(F)F | 10 | 93 |
| CO[C@@H]([C@@H]1OC(C(=O)O)=C[C@H](N=C(N)N)[C@H]1NC(C)=O)[C@H](O)CO.O=C(O)C(F)(F)F | 3 |  |
| CC(=O)N[C@@H]([C@@H]1OC(C(=O)O)=C[C@H](N=C(N)N)[C@H]1NC(C)=O)[C@H](O)CO |  | 37.1 |
| CCCCCCCC(=O)N[C@@H]([C@@H]1OC(C(=O)O)=C[C@H](N=C(N)N)[C@H]1NC(C)=O)[C@H](O)CO.O=C(O)C(F)(F)F | 100 | 84 |
| CCO[C@@H]([C@@H]1OC(C(=O)O)=C[C@H](N=C(N)N)[C@H]1NC(C)=O)[C@H](O)CO.O=C(O)C(F)(F)F | 0.7 | 30.8 |
| CCC(=O)N[C@@H]([C@@H]1OC(C(=O)O)=C[C@H](N=C(N)N)[C@H]1NC(C)=O)[C@H](O)CO.O=C(O)C(F)(F)F | 4 | 19.9 |
| CC(=O)N[C@@H]1[C@@H](NC(=N)N)C=C(C(=O)O)O[C@H]1C(F)(F)[C@H](O)CO.O=C(O)C(F)(F)F | 400 | 1030 |
| CC(=O)N[C@H]1[C@H]([C@H](O)[C@H](O)CO)OC(C(=O)O)=C[C@@H]1NC(=N)N [ZANAMIVIR] | 1 (≈ 3.01 nM) |  |
